According to ChEMBL document CHEMBL1201862, “PubChem BioAssay data set” (2004):
Active and inactive are the calls of the source.

Key:
[1] = biological target: T1, Neuropeptide Y receptor type 2 (Homo sapiens, UniProt P49146); assay: Fluorescence-based cell-based high-throughput dose response assay for agonists of NPY-Y2. [Related pubchem assays: 1703 (Screening assay (CNGC inhibitors).), 1359 (Screening assay (NPY-Y2 potentiators or agonists).), 1304 (Screening assay (NPY-Y1 potentiators or agonists).), 1710 (Screening assay (NPY-Y2 agonists).), 1791 (Summary AID.)]; format: functional
T1 sequence (P49146 whole entry): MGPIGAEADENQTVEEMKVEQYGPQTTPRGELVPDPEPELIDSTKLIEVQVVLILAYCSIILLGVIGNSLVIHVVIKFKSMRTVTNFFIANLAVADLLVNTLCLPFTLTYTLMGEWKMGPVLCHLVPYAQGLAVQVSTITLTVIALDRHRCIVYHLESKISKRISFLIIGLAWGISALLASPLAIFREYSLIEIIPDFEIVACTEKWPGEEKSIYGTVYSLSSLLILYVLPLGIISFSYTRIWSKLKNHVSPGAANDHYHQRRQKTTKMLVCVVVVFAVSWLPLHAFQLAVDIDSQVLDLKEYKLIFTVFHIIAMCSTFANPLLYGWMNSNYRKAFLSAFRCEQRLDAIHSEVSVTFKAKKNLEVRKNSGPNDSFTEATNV

[2] = viability loss in THP-1 monocytes – THP-1 cells, cytotoxicity control for Vif-APOBEC3G degradation inhibitor project, dose response (AID 1117359); format: functional; conditions: THP-1
[3] = biological target: T2, Neuropeptide Y receptor type 1 (Homo sapiens, UniProt P25929); assay: Fluorescence-based counterscreen for agonists of NPY-Y2: cell-based high-throughput dose response assay for agonists of NPY-Y1.; format: functional
T2 sequence (P25929 whole entry): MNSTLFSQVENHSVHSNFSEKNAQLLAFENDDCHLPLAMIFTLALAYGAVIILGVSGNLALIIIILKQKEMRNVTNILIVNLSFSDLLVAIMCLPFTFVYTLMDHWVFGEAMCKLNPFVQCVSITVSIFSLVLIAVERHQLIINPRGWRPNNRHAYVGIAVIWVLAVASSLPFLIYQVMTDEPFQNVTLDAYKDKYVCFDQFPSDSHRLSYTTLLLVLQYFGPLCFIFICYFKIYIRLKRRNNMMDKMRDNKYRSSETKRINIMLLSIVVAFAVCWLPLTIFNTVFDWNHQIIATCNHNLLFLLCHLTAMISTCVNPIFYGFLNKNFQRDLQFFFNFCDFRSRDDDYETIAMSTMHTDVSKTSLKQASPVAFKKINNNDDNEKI

[4] = test system: HEK293; assay: Fluorescence-based counterscreen for potentiators or agonists of NPY-Y2: cell-based high-throughput dose response assay to identify inhibitors of cyclic nucleotide gated ion channel (CNGC) activity. In this assay, the parental HEK293 cell line transfected with a cyclic-nucleotide gated ion channel (CNGC)-based cAMP sensor is used to measure inhibition of isoproterenol-induced CNGC activity by test compound.; format: functional; conditions: Homo sapiens
[5] = test system: HEK293; assay: cells; format: functional, cell-based; conditions: Homo sapiens
[6] = test system: HEK293; assay: cells; format: functional, cell-based; conditions: Homo sapiens; remark: listed apart in the source
[7] = test system: HEK293; assay: cells; format: functional, cell-based; conditions: Homo sapiens; remark: listed apart in the source
[8] = biological target: Nucleotide-binding oligomerization domain-containing protein 2 (Homo sapiens, UniProt Q9HC29); assay: inhibition of NOD2-driven NF-kB reporter – cell-based, luminescence, uHTS, HEK293 (AID 1566); format: functional
[9] = test system: HEK293; assay: inhibition of NOD1-driven NF-kB reporter – cell-based, luminescence, uHTS, primary screen (AID 1578); format: functional; conditions: Homo sapiens
[10] = biological target: Voltage-dependent T-type calcium channel subunit alpha-1H (Homo sapiens, UniProt O95180); format: functional;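 further: channel activity triggered by adding a high calcium stimulation buffer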
[11] = test system: HEK293; assay: NOD2 signaling inhibitors in MDP-stimulated cells, cell-based, uHTS, luminescence (AID 2001); format: functional; conditions: Homo sapiens
[12] = biological target: T3, Heat shock factor protein 1 (Mus musculus, UniProt P38532); assay: enhancement of HSF1-driven luciferase signal – cell-based, NIH3T3, luminescence, dose retest, confirmation (AID 435004); format: functional;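 further: stress induced by proteasome inhibitor MG132 added 30 min after compound; luciferase reporter driven by HSF1 response element in NIH3T3 cells; actives raise luminescence as potentiators of the MG132 stress response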
T3 sequence (P38532 whole entry): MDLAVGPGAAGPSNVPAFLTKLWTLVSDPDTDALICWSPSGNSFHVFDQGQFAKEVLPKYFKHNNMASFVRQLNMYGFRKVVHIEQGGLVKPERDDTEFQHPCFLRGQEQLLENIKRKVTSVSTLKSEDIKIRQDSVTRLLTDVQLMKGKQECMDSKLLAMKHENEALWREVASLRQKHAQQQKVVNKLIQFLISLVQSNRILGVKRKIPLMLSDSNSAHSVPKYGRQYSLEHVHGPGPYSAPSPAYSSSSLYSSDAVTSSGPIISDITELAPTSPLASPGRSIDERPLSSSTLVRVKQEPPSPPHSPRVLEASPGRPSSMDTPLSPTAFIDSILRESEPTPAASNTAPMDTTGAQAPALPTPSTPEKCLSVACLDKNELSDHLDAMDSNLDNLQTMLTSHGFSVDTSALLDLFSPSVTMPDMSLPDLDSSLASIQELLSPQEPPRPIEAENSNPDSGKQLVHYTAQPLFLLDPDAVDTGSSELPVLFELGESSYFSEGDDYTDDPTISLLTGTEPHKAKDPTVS

[13] = biological target: Lysosomal acid glucosylceramidase (Homo sapiens, UniProt P04062); assay: Dose response cell-based high throughput screening assay to identify enhancers of beta-glucosidase activity. [Related pubchem assays: 784 ]; format: functional
Chain of Lysosomal acid glucosylceramidase (P04062 whole entry): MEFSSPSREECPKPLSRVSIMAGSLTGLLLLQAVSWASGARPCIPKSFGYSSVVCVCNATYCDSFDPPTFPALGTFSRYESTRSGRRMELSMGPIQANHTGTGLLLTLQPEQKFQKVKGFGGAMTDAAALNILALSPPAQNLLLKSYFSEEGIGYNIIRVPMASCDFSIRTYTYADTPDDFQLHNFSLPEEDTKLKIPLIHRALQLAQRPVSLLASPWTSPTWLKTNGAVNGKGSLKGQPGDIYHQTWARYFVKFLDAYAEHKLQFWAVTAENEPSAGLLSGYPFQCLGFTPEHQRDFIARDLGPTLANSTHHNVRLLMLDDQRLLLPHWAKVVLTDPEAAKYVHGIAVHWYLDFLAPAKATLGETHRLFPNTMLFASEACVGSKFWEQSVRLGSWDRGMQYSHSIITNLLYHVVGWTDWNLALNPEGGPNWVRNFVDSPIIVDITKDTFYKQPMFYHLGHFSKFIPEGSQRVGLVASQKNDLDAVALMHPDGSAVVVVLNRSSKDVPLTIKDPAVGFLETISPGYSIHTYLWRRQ

Chain of Voltage-dependent T-type calcium channel subunit alpha-1H (O95180 whole entry): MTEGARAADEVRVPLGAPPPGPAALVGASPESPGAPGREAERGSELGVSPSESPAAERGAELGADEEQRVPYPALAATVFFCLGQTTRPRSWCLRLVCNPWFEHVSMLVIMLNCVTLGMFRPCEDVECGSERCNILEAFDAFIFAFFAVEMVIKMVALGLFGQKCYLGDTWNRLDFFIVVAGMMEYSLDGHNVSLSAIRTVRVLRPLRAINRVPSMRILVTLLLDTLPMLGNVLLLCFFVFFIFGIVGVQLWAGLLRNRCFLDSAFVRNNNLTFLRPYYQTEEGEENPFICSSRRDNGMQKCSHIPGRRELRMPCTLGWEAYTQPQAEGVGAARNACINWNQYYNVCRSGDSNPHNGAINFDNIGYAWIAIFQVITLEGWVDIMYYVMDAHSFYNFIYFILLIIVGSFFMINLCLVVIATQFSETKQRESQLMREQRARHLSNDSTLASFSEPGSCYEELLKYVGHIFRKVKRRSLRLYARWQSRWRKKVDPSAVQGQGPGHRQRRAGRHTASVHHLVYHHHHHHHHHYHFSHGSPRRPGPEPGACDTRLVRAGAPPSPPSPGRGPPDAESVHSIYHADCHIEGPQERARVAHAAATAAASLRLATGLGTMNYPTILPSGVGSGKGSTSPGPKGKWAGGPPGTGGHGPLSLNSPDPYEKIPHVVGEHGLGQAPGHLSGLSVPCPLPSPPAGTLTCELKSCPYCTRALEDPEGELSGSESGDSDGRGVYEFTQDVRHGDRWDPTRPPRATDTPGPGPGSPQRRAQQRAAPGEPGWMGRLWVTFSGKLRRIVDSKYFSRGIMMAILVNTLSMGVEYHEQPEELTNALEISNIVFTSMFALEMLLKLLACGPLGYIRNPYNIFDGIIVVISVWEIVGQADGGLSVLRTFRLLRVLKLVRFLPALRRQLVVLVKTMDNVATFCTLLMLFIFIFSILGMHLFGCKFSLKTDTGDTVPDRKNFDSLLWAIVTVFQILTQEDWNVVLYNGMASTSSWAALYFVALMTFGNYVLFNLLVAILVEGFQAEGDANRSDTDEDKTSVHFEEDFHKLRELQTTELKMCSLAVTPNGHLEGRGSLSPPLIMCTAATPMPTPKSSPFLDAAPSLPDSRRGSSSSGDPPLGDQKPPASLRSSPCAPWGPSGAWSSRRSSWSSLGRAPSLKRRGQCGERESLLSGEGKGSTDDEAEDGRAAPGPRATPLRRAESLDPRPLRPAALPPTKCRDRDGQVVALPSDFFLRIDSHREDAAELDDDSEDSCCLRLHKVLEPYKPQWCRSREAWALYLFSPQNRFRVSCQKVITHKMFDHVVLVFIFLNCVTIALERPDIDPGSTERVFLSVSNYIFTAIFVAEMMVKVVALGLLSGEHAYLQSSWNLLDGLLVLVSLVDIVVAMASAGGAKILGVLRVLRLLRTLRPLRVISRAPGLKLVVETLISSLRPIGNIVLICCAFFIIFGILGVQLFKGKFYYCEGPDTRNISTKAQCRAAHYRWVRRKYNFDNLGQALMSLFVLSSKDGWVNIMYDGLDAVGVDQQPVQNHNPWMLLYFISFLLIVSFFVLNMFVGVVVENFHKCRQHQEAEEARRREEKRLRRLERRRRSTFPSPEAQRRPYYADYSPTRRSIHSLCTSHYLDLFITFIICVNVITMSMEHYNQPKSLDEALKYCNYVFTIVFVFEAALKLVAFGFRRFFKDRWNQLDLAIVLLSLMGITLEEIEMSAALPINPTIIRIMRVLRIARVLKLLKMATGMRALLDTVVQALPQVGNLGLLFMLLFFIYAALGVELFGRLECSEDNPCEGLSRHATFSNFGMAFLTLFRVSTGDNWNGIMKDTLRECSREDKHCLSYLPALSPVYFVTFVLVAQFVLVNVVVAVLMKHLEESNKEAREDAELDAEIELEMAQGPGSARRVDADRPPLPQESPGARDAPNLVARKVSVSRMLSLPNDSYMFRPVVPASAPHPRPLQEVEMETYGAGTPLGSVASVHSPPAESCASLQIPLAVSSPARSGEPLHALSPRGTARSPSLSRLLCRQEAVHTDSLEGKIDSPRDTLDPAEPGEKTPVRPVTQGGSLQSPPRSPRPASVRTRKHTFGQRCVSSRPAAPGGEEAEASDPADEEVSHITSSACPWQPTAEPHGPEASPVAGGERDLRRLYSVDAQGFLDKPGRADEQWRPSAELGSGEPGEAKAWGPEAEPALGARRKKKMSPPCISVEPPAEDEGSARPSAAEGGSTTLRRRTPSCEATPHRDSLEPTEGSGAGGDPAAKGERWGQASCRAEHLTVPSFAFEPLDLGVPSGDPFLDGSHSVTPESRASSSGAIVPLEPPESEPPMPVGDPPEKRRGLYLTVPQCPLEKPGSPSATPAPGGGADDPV
Chain of Nucleotide-binding oligomerization domain-containing protein 2 (Q9HC29 whole entry, the tested form may be a part): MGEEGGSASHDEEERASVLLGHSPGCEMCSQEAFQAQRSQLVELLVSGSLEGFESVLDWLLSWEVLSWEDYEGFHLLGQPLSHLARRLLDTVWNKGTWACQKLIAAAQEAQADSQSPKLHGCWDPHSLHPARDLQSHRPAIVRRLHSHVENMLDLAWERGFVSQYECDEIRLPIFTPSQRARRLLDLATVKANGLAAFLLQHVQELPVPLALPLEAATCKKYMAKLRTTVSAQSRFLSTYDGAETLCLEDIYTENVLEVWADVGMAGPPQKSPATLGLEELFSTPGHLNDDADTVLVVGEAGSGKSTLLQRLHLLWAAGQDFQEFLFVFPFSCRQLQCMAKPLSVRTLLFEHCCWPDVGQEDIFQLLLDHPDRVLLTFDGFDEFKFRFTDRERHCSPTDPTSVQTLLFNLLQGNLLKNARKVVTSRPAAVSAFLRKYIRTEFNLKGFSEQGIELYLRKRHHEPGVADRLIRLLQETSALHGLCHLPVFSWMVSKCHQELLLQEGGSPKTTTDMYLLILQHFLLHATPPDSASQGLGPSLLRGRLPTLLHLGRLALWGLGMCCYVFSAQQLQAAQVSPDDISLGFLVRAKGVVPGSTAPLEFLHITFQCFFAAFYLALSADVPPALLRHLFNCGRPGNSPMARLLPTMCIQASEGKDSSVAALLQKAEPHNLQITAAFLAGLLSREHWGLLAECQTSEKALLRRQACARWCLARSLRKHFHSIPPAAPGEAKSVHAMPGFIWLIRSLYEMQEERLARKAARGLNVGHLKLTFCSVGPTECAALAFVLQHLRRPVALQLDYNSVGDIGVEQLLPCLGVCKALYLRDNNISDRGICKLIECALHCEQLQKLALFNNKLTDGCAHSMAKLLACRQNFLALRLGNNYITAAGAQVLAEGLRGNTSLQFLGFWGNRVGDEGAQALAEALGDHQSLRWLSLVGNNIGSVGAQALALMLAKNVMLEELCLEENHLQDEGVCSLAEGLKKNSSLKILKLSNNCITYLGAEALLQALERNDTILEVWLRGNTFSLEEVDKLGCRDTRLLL

O=C(N/N=C\c1ccc(Cl)cc1)C1=NOC2COC3(CCN(c4ccc([N+](=O)[O-])cc4)CC3)OCC12 (stereo unspecified)
EC50 [1]: > 35.4 µM (not active)
CC50 [2]: > 40 µM (active)
EC50 [3]: > 35.4 µM (not active)
EC50 [4]: > 35.4 µM (not active)

Cc1nc2ccccc2c2oc(C(=O)NCC3COc4ccccc4O3)cc12 (stereo unspecified)
IC50 [5]: 4.14 µM (active)
IC50 [6]: > 20 µM (inactive)
IC50 [7]: 8.6 µM (active)
EC50 [8]: 4.75 µM (active)
EC50 [9]: 4.69 µM (active)
EC50 [10]: 7.77 µM (active)
IC50 [11]: 3.93 µM (inactive)

O=C(c1ccc(F)cc1F)C1CCN(c2ccc([N+](=O)[O-])cn2)CC1
EC50 [1]: 27.5 µM (not active)
EC50 [3]: > 35.4 µM (not active)
EC50 [12]: > 260 µM (inactive)
EC50 [4]: > 35.4 µM (not active)

COc1cccc(NC(=O)C2C3C=CC4(O3)C2C(=O)N(C(C)C)C4C(=O)NC2CCCCC2C)c1 (stereo unspecified)
EC50 [13]: > 50 µM (not active)
